Measured values reported in PubChem BioAssay AID256 (DTP/NCI, 2004).
“And” between values parts separate entries of the source, which are not always exact repeats. Identical values can stand only once. Inconclusive results and toxic doses are left out.

Tested on: CD2F1 mice, L1210 leukemia ip, survival T/C
Assay: NCI In Vivo Anticancer Drug Screen. Data for tumor model L1210 Leukemia (intraperitoneal) in CD2F1 (CDF1) mice
Details: higher = longer survival
In short: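 Mice carrying a transplanted tumor received test compound or vehicle alone. The value is the measurement in the treated group divided by that in the vehicle-treated control group.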

## O=C(NC(Cc1ccc(I)cc1)C(=O)O)c1ccc(Br)cc1 (stereo unspecified)
endpoint: median survival time, dose: 25.0 mg/kg/injection, schedule: Q01DX009 (ip), vehicle: sodium bicarbonate
  T/C: 98 % of control
endpoint: median survival time, dose: 50.0 mg/kg/injection, schedule: Q01DX009 (ip), vehicle: sodium bicarbonate
  T/C: 101 % of control
endpoint: median survival time, dose: 100.0 mg/kg/injection, schedule: Q01DX009 (ip), vehicle: sodium bicarbonate
  T/C: 101 % of control
endpoint: median survival time, dose: 200.0 mg/kg/injection, schedule: Q01DX009 (ip), vehicle: sodium bicarbonate
  T/C: 96 % of control

## C=Cc1ccc(NC(=O)CCn2cnc3c(N)ncnc32)cc1
endpoint: mean survival time, dose: 12.5 mg/kg/injection, schedule: Q01DX005 (ip), vehicle: distilled water + Tween-80
  T/C: 100 % of control
endpoint: mean survival time, dose: 25.0 mg/kg/injection, schedule: Q01DX005 (ip), vehicle: distilled water + Tween-80
  T/C: 102 % of control
endpoint: mean survival time, dose: 50.0 mg/kg/injection, schedule: Q01DX005 (ip), vehicle: distilled water + Tween-80
  T/C: 98 % of control
endpoint: mean survival time, dose: 100.0 mg/kg/injection, schedule: Q01DX005 (ip), vehicle: distilled water + Tween-80
  T/C: 98 % of control
endpoint: mean survival time, dose: 200.0 mg/kg/injection, schedule: Q01DX005 (ip), vehicle: distilled water + Tween-80
  T/C: 98 % of control

## OCC1OC(n2cnc3c(NO)nc(NO)nc32)C(O)C1O (stereo unspecified)
endpoint: mean survival time, dose: 2.25 mg/kg/injection, schedule: Q01DX009 (ip), vehicle: saline
  T/C: 115 % of control
endpoint: mean survival time, dose: 4.5 mg/kg/injection, schedule: Q01DX009 (ip), vehicle: saline
  T/C: 116 % of control
endpoint: mean survival time, dose: 9.0 mg/kg/injection, schedule: Q01DX009 (ip), vehicle: saline
  T/C: 116 % of control
endpoint: mean survival time, dose: 18.0 mg/kg/injection, schedule: Q01DX009 (ip), vehicle: saline
  T/C: 122 % of control
endpoint: mean survival time, dose: 36.0 mg/kg/injection, schedule: Q01DX009 (ip), vehicle: saline
  T/C: 192 % of control
endpoint: median survival time, dose: 36.0 mg/kg/injection, schedule: Q01DX009 (ip), vehicle: saline
  T/C: 178 % of control
endpoint: median survival time, dose: 54.0 mg/kg/injection, schedule: Q01DX009 (ip), vehicle: saline
  T/C: 188 % of control
endpoint: median survival time, dose: 72.0 mg/kg/injection, schedule: Q01DX009 (ip), vehicle: saline
  T/C: 202 % of control

## CN1CCC(CCOCc2ccccc2)(CN2c3ccccc3Sc3ccccc32)C1 (stereo unspecified)
endpoint: mean survival time, dose: 6.25 mg/kg/injection, schedule: Q04DX003 (ip), vehicle: saline with Tween-80
  T/C: 106 % of control
endpoint: mean survival time, dose: 12.5 mg/kg/injection, schedule: Q04DX003 (ip), vehicle: saline with Tween-80
  T/C: 110 % of control
endpoint: mean survival time, dose: 25.0 mg/kg/injection, schedule: Q04DX003 (ip), vehicle: saline with Tween-80
  T/C: 104 % of control

## CCCCCCCCCCCCCCCCCC(=O)OCC(=O)OCC(=O)[C@]1(O)Cc2c(O)c3c(c(O)c2[C@@H](OC2CC(N)C(O)C(C)O2)C1)C(=O)c1c(OC)cccc1C3=O (stereo partly specified)
endpoint: mean survival time, dose: 0.37 mg/kg/injection, schedule: Q01DX009 (ip), vehicle: saline
  T/C: 116 % of control
endpoint: mean survival time, dose: 0.39 mg/kg/injection, schedule: Q01DX005 (ip), vehicle: water
  T/C: 122 % of control and 112 % of control
endpoint: mean survival time, dose: 0.75 mg/kg/injection, schedule: Q01DX009 (ip), vehicle: saline
  T/C: 115 % of control
endpoint: mean survival time, dose: 0.78 mg/kg/injection, schedule: Q01DX005 (ip), vehicle: water
  T/C: 118 % of control and 119 % of control
endpoint: mean survival time, dose: 1.5 mg/kg/injection, schedule: Q01DX009 (ip), vehicle: saline
  T/C: 115 % of control
endpoint: mean survival time, dose: 3.13 mg/kg/injection, schedule: Q01DX005 (ip), vehicle: other
  T/C: 152 % of control
endpoint: mean survival time, dose: 3.13 mg/kg/injection, schedule: Q01DX005 (ip), vehicle: water
  T/C: 209 % of control
endpoint: mean survival time, dose: 6.25 mg/kg/injection, schedule: Q01DX005 (ip), vehicle: other
  T/C: 156 % of control
endpoint: mean survival time, dose: 6.25 mg/kg/injection, schedule: Q01DX005 (ip), vehicle: water
  T/C: 124 % of control
endpoint: mean survival time, dose: 12.0 mg/kg/injection, schedule: Q01DX009 (ip), vehicle: saline
  T/C: 157 % of control
endpoint: mean survival time, dose: 12.5 mg/kg/injection, schedule: Q01DX005 (ip), vehicle: other
  T/C: 90 % of control

## CCCCCCCCSCC(CSCCCCCCCC)(CSCCCCCCCC)CSCCCCCCCC
endpoint: mean survival time, dose: 100.0 mg/kg/injection, schedule: Q01DX001 (ip), vehicle: saline with Tween-80
  T/C: 101 % of control
endpoint: mean survival time, dose: 200.0 mg/kg/injection, schedule: Q01DX001 (ip), vehicle: saline with Tween-80
  T/C: 93 % of control
endpoint: mean survival time, dose: 400.0 mg/kg/injection, schedule: Q01DX001 (ip), vehicle: saline with Tween-80
  T/C: 93 % of control

## Nc1ccc(N=Nc2ccccc2)c(N)c1
endpoint: mean survival time, dose: 100.0 mg/kg/injection, schedule: Q04DX003 (ip), vehicle: saline
  T/C: 97 % of control
endpoint: mean survival time, dose: 200.0 mg/kg/injection, schedule: Q04DX003 (ip), vehicle: saline
  T/C: 90 % of control
endpoint: mean survival time, dose: 400.0 mg/kg/injection, schedule: Q04DX003 (ip), vehicle: saline
  T/C: 100 % of control

## NC(CC(=O)c1cccc2oc3cc(=O)c4[nH]c(C(=O)O)cc(=O)c4c-3nc12)C(=O)O (stereo unspecified)
endpoint: mean survival time, dose: 50.0 mg/kg/injection, schedule: Q01DX001 (ip), vehicle: carboxymethylcellulose (CMC)
  T/C: 98 % of control
endpoint: mean survival time, dose: 100.0 mg/kg/injection, schedule: Q01DX001 (ip), vehicle: carboxymethylcellulose (CMC)
  T/C: 95 % of control
endpoint: mean survival time, dose: 200.0 mg/kg/injection, schedule: Q01DX001 (ip), vehicle: carboxymethylcellulose (CMC)
  T/C: 95 % of control
endpoint: mean survival time, dose: 400.0 mg/kg/injection, schedule: Q01DX001 (ip), vehicle: carboxymethylcellulose (CMC)
  T/C: 101 % of control
